Experimental data reported in US20250230193A1, “CYCLIC COMPOUND HAVING SELECTIVE KRAS INHIBITORY EFFECT ON HRAS AND NRAS” (CHUGAI SEIYAKU KABUSHIKI KAISHA, priority 2022, published 2025).

Assays:
[1] = target: GDP-bound NRAS wild-type protein (Homo sapiens, UniProt P01111); assay: Binding to NRAS by surface plasmon resonance (SPR), Single Cycle Kinetics; conditions: SPR; KD ratio class
[2] = target: GDP-bound HRAS wild-type protein (Homo sapiens, UniProt P01112); assay: Binding to HRAS by surface plasmon resonance (SPR), Single Cycle Kinetics; conditions: SPR; KD ratio class
[3] = system: human lung cancer strain NCI-H441; assay: cells; conditions: NCI-H441, 96 h, read-out: NCI-H441 IC50 (nM)

GDP-bound HRAS wild-type protein, sequence (P01112 whole entry): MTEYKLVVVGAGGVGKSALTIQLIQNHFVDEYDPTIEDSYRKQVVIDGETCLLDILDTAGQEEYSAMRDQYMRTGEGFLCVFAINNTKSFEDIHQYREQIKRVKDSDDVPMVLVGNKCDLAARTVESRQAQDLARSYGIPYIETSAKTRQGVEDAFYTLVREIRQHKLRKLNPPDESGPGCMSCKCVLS
GDP-bound NRAS wild-type protein, sequence (P01111 whole entry): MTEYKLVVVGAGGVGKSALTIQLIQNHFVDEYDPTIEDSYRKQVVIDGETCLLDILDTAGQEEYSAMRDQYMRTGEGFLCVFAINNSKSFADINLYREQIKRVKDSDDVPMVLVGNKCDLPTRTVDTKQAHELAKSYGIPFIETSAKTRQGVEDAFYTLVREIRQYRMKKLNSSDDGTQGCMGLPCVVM

| IC50 [3] [nM] | SMILES | NRAS/KRAS (ratio of KD value for GDP-bound NRAS wild-type protein to KD value for KRAS) [1] | HRAS/KRAS (ratio of KD value for GDP-bound HRAS wild-type protein to KD value for KRAS) [2] |
| --- | --- | --- | --- |
| 14.1 | CCO[C@@H]1C[C@H]2C(=O)NC3(CCC3)C(=O)N(C)[C@@H](C3CCCC3)C(=O)N(C)[C@H](C(=O)N(C)C)CC(=O)N(C)[C@@H](CC)C(=O)N[C@@H]([C@@H](C)CC)C(=O)N(C)CC(=O)N(C)[C@H]3C/C=C\CCN(C3=O)[C@@H](Cc3ccc(C(F)(F)F)cc3)C(=O)N(C)CC(=O)N[C@@H](CCc3ccc(C(F)(F)F)c(C)c3)C(=O)N2C1 [PP1265] | A (a compound having 10 or more and less than 20 is denoted as A) | B (a compound having 3 or more and less than 10 is denoted as B) |
| 142 | CCO[C@@H]1C[C@H]2C(=O)NC3(CCC3)C(=O)N(C)[C@@H](C3CCCC3)C(=O)N(C)[C@H](C)CC(=O)N(C)[C@@H](CC(C)C)C(=O)N[C@@H]([C@@H](C)CC)C(=O)N(C)CC(=O)N(C)[C@H]3C/C=C\CCN(C3=O)[C@@H](Cc3ccc(F)cc3)C(=O)N(C)CC(=O)N[C@@H](CCc3cc(F)c(C(F)(F)F)c(F)c3)C(=O)N2C1 [PP1494] | B (a compound having 3 or more and less than 10 is denoted as B) | B (a compound having 3 or more and less than 10 is denoted as B) |
| 6.6 | CCO[C@@H]1C[C@H]2C(=O)NC3(CCC3)C(=O)N(C)[C@@H](C3CCCC3)C(=O)N(C)[C@H](C(=O)N3CCOCC3)CC(=O)N(C)[C@@H](CC)C(=O)N[C@@H]([C@@H](C)CC)C(=O)N(C)CC(=O)N(C)[C@H]3CC[C@@H](C)CN(C3=O)[C@@H](Cc3ccc(C(F)(F)F)cc3)C(=O)N(C)CC(=O)N[C@@H](CCc3ccc(C(F)(F)F)c(Cl)c3)C(=O)N2C1 [PP1378] | B (a compound having 3 or more and less than 10 is denoted as B) | C (A compound having a KD ratio of 0.1 or more and less than 3 is denoted as C) |
| 51 | CCO[C@@H]1C[C@H]2C(=O)NC3(CCC3)C(=O)N(C)[C@@H](C3CCCC3)C(=O)N(C)[C@H](C)CC(=O)N(C)[C@@H](CC3CC3)C(=O)N[C@@H]([C@@H](C)CC)C(=O)N(C)CC(=O)N(C)[C@H]3C/C=C\CCN(C3=O)[C@@H](Cc3ccc(C)cc3)C(=O)N(C)CC(=O)N[C@@H](CCc3cc(F)c(C(F)(F)F)c(F)c3)C(=O)N2C1 [PP1410] | B (a compound having 3 or more and less than 10 is denoted as B) | B (a compound having 3 or more and less than 10 is denoted as B) |
| 466 | CC[C@H](C)[C@@H]1NC(=O)[C@H](CC2CC2)N(C)C(=O)C[C@@H](C)N(C)C(=O)[C@H](C2CCCC2)N(C)C(=O)C2(CCC2)NC(=O)[C@H](CC(F)F)N(C)C(=O)[C@H](CCc2cc(F)c(C(F)(F)F)c(F)c2)NC(=O)CN(C)C(=O)[C@H](Cc2ccc(C(F)(F)F)cc2)N2CC/C=C\C[C@@H](C2=O)N(C)C(=O)CN(C)C1=O [PP1405] | A (a compound having 10 or more and less than 20 is denoted as A) | A (a compound having 10 or more and less than 20 is denoted as A) |
| 5 | CC[C@H](C)[C@@H]1NC(=O)[C@H](CC2CCC2)N(C)C(=O)C[C@@H](C(=O)N(C)C)N(C)C(=O)[C@H](C2CCCC2)N(C)C(=O)C2(CCCC2)NC(=O)[C@@H]2CCCN2C(=O)[C@H](CCc2ccc(C(F)(F)F)c(Cl)c2)NC(=O)CN(C)C(=O)[C@H](Cc2ccc(C(F)(F)F)cc2)N2C[C@H](C)CC[C@@H](C2=O)N(C)C(=O)CN(C)C1=O [PP1342] | B (a compound having 3 or more and less than 10 is denoted as B) | B (a compound having 3 or more and less than 10 is denoted as B) |
| 567 | CCO[C@@H]1C[C@H]2C(=O)NC3(CCC3)C(=O)N(C)[C@@H](C(CC)CC)C(=O)N(C)[C@H](C)CC(=O)N(C)[C@@H](CC3CCCC3)C(=O)N[C@@H]([C@@H](C)CC)C(=O)N(C)CC(=O)N(C)[C@H]3C/C=C\CCN(C3=O)[C@@H](Cc3ccc(F)cc3C)C(=O)N(C)CC(=O)N[C@@H](CCc3cc(F)c(C(F)(F)F)c(F)c3)C(=O)N2C1 [PP1522] | A (a compound having 10 or more and less than 20 is denoted as A) | A (a compound having 10 or more and less than 20 is denoted as A) |
| 18.7 | CCC[C@H]1C(=O)N[C@@H]([C@@H](C)CC)C(=O)N(C)CC(=O)N(C)[C@H]2C/C=C\CCN(C2=O)[C@@H](Cc2ccc(C(F)(F)F)cc2)C(=O)N(C)CC(=O)N[C@@H](CCc2ccc(Cl)c(Cl)c2)C(=O)N2C[C@H](OCC)C[C@H]2C(=O)NC2(CCC2)C(=O)N(C)[C@@H](C2CCCC2)C(=O)N(C)[C@H](C(=O)N(C)C)CC(=O)N1C [PP1250] | AA (a compound having 20 or more is denoted as AA) | A (a compound having 10 or more and less than 20 is denoted as A) |
| 110 | CCO[C@@H]1C[C@H]2C(=O)NC3(CCC3)C(=O)N(C)[C@@H](C(CC)CC)C(=O)N(C)[C@H](C(=O)N(C)C)CC(=O)N(C)[C@@H](CC)C(=O)N[C@@H]([C@@H](C)CC)C(=O)N(C)CC(=O)N(C)[C@H]3C/C=C\CCN(C3=O)[C@@H](Cc3ccc(C(F)(F)F)cc3)C(=O)N(C)CC(=O)N[C@@H](CCc3cc(F)c(Cl)c(F)c3)C(=O)N2C1 [PP1230] | A (a compound having 10 or more and less than 20 is denoted as A) | A (a compound having 10 or more and less than 20 is denoted as A) |
| 54.3 | CCO[C@@H]1C[C@H]2C(=O)NC3(CCC3)C(=O)N(C)[C@@H](C3CCCC3)C(=O)N(C)[C@H](C(=O)N(C)C)CC(=O)N(C)[C@@H](CC(C)C)C(=O)N[C@@H]([C@@H](C)CC)C(=O)N(C)CC(=O)N(C)[C@H]3C/C=C\CCN(C3=O)[C@@H](Cc3ccc(C(F)(F)F)cc3)C(=O)N(C)CC(=O)N[C@@H](CCc3ccc4sccc4c3)C(=O)N2C1 [PP1257] | A (a compound having 10 or more and less than 20 is denoted as A) | A (a compound having 10 or more and less than 20 is denoted as A) |
| 386 | CCO[C@@H]1C[C@H]2C(=O)NC3(CCC3)C(=O)N(C)[C@@H](C3CCCC3)C(=O)N(C)[C@@H](C(=O)N(C)C)CC(=O)N(C)[C@@H](CC3CCCC3)C(=O)N[C@@H]([C@@H](C)CC)C(=O)N(C)CC(=O)N(C)[C@H]3C/C=C\CCN(C3=O)[C@@H](Cc3ccc(C(F)(F)F)cc3)C(=O)N(C)CC(=O)N[C@@H](CCc3cc(F)c(C(F)(F)F)c(F)c3)C(=O)N2C1 [PP1235] | B (a compound having 3 or more and less than 10 is denoted as B) | C (A compound having a KD ratio of 0.1 or more and less than 3 is denoted as C) |
| 34.4 | CCCOC[C@H]1C(=O)N[C@@H]([C@@H](C)CC)C(=O)N(C)CC(=O)N(C)[C@H]2C/C=C\CCN(C2=O)[C@@H](Cc2ccc(C)cc2)C(=O)N(C)CC(=O)N[C@@H](CCc2cc(F)c(C(F)(F)F)c(F)c2)C(=O)N2C[C@H](OCC)C[C@H]2C(=O)NC2(CCCC2)C(=O)N(C)[C@@H](C2CCCC2)C(=O)N(C)[C@H](C(=O)N2CCCC2)CC(=O)N1C [PP1401] | A (a compound having 10 or more and less than 20 is denoted as A) | A (a compound having 10 or more and less than 20 is denoted as A) |
| 2.6 | CCO[C@@H]1C[C@H]2C(=O)NC3(CC(C)(C)C3)C(=O)N(C)[C@@H](C3CCCC3)C(=O)N(C)[C@H](C(=O)N(C)C)CC(=O)N(C)[C@@H](CC3CC3)C(=O)N[C@@H]([C@@H](C)CC)C(=O)N(C)CC(=O)N(C)[C@H]3C/C=C\CCN(C3=O)[C@@H](Cc3ccc(C(F)(F)F)cc3)C(=O)N(C)CC(=O)N[C@@H](CCc3ccc(C(F)(F)F)c(OC)c3)C(=O)N2C1 [PP1563] | A (a compound having 10 or more and less than 20 is denoted as A) | A (a compound having 10 or more and less than 20 is denoted as A) |
| 111 | CCO[C@@H]1C[C@H]2C(=O)NC3(CCCC3)C(=O)N(C)[C@@H](C3CCCC3)C(=O)N(C)[C@H](C(=O)N(C)C)CC(=O)N(C)[C@@H](C)C(=O)N[C@@H]([C@@H](C)CC)C(=O)N(C)CC(=O)N(C)[C@H]3C/C=C\CCN(C3=O)[C@@H](CC3CCCCC3)C(=O)N(C)CC(=O)N[C@@H](CCc3cc(F)c(C(F)(F)F)c(F)c3)C(=O)N2C1 [PP1470] | A (a compound having 10 or more and less than 20 is denoted as A) | A (a compound having 10 or more and less than 20 is denoted as A) |

| SMILES | IC50 [3] [nM] | NRAS/KRAS (ratio of KD value for GDP-bound NRAS wild-type protein to KD value for KRAS) [1] | HRAS/KRAS (ratio of KD value for GDP-bound HRAS wild-type protein to KD value for KRAS) [2] |
| --- | --- | --- | --- |
| CCO[C@@H]1C[C@H]2C(=O)NC3(CCC3)C(=O)N(C)[C@@H](C3CCCC3)C(=O)N(C)[C@H](C(=O)N3CCCCC3)CC(=O)N(C)[C@@H](CC)C(=O)N[C@@H]([C@@H](C)CC)C(=O)N(C)CC(=O)N(C)[C@H]3C/C=C\CCN(C3=O)[C@@H](Cc3ccc(C(F)(F)F)cc3)C(=O)N(C)CC(=O)N[C@@H](CCc3cc(F)c(C(F)(F)F)c(F)c3)C(=O)N2C1 [PP1289] | 34.7 | AA (a compound having 20 or more is denoted as AA) | A (a compound having 10 or more and less than 20 is denoted as A) |
